Test results reported in patent US9475822B2, “Substituted 2- amidoquinazol-4-ones as matrix metalloproteinase-13 inhibitors” (Takeda Pharmaceutical Company Limited, priority 2004, dated 2016).

Molecular target: T1, MMP-13 (Homo sapiens, UniProt P45452)
T1 construct: purchased GenzymeTechne
Test: MMP-13 inhibitory activity (fluorogenic peptide substrate enzyme assay)
Format: biochemical
Conditions: compound 1 μM; substrate Cy3-PLGLK(Cy5Q)AR-NH2; 37° C., 40 min
Experimental: To 10 μg of MMP-13 precursor (GenzymeTechne) was added 1 ml of assay buffer (50 mM Tris-HCl (pH 7.5), 10 mM CaCl2, 150 mM NaCl, 0.05% Brij-35), and 4-aminophenylmercuric acid (Sigma) was added to the final concentration of 1 mM. The MMP-13 precursor was activated by incubating at 37° C. for 2 hrs.
In a 96 well black plate (Corning), to 6.3 ng/ml of MMP-13 solution (49 μl) diluted with assay buffer was added the test compound (1 μl) diluted with dimethyl sulfoxide (DMSO) and 620 nM Cy3-PLGLK(Cy5Q)AR—NH2 (50 μl, synthesized by Amersham Biosciences) in assay buffer was added to start the enzyme reaction. After incubation at 37° C. for 40 min, 500 mM EDTA solution (6 μl) was added to stop the reaction. For measurement, Farcyte (Amersham Biosciences) was used to measure at excitation wavelength 535 nm and measurement wavelength 595 nm.
T: value of well with addition of DMSO instead of test compound
C: value of well with addition of DMSO instead of test compound and addition of EDTA solution before addition of substrate solution
X: value of well with addition of test compound

First: COc1cccc(CNC(=O)c2nc3ccc(F)c(OCCc4ccc(C(=O)[O-])cc4)c3c(=O)[n-]2)c1.[Na+].[Na+] [Example 287, Disodium 4-[2-({6-fluoro-2-[({[3-(methyloxy)phenyl]methyl}amino)carbonyl]-4-oxo-4H-quinazolin-3-id-5-yl}oxy)ethyl]benzoate]
Second: COc1cccc(CNC(=O)c2nc3scc(COCc4ccc(C(=O)[O-])cc4)c3c(=O)[n-]2)c1.[Na+].[Na+] [Example 384, Disodium 4-{[({2-[({[3-(methyloxy)phenyl]methyl}amino)carbonyl]-4-oxo-4H-thieno[2,3-d]pyrimidin-3-id-5-yl}methyl)oxy]methyl}benzoate]
The “MMP-13 activity inhibitory rate (%)” value of the first is higher: 98% for the first, 91% for the second.

With `COc1cccc(CNC(=O)c2nc3scc(COCc4ccc(C(=O)[O-])cc4)c3c(=O)[nH]2)c1.[K+]` [Example 385, Potassium 4-{[({2-[({[3-(methyloxy)phenyl]methyl}amino)carbonyl]-4-oxo-3,4-dihydrothieno[2,3-d]pyrimidin-5-yl}methyl)oxy]methyl}benzoate] the “MMP-13 activity inhibitory rate (%)” value was 96%.

Same assay, conditions: compound 1 μM; substrate Cy3-PLGLK(Cy5Q)AR-NH2; 37° C., 40 min; 1 µM

In the case of `COc1cccc(CNC(=O)c2nc3scc(COCc4ccc(C(=O)O)cc4)c3c(=O)[nH]2)c1` [Example 217, 4-{[({2-[({[3-(methyloxy)phenyl]methyl}amino)carbonyl]-4-oxo-3,4-dihydrothieno[2,3-d]pyrimidin-5-yl}methyl)oxy]methyl}benzoic acid], the “MMP-13 activity inhibitory rate (%)” value is reported as 100%.
For `COc1cccc(CNC(=O)c2nc3scc(COCc4ccc(C(=O)O)cc4)c3c(=O)[nH]2)c1` [Example 386, Dipotassium 4-{[({2-[({[3-(methyloxy)phenyl]methyl}amino)carbonyl]-4-oxo-4H-thieno[2,3-d]pyrimidin-3-id-5-yl}methyl)oxy]methyl}benzoate], the “MMP-13 activity inhibitory rate (%)” value was 94%.

Same assay, conditions: compound 1 μM; substrate Cy3-PLGLK(Cy5Q)AR-NH2; 37° C., 40 min; read-out: MMP-13 activity inhibitory rate (%)

Compared with `COc1cccc(CNC(=O)c2nc3ccccc3c(=O)[nH]2)c1` [Example 1, N-{[3-(methyloxy)phenyl]methyl}-4-oxo-3,4-dihydroquinazoline-2-carboxamide], `COc1cccc(CNC(=O)c2nc3sccc3c(=O)[nH]2)c1` [Example 209, N-{[3-(methyloxy)phenyl]methyl}-4-oxo-3,4-dihydrothieno[2,3-d]pyrimidine-2-carboxamide] is higher in inhibition at 1 µM: 91% for the first, 94% for the second.

Compared with `COc1cccc(CNC(=O)c2nc3ccc(F)c(OCCc4ccc(C(=O)O)cc4)c3c(=O)[nH]2)c1` [Example 179, 4-[2-({6-Fluoro-2-[({[3-(methyloxy)phenyl]methyl}amino)carbonyl]-4-oxo-3,4-dihydroquinazolin-5-yl}oxy)ethyl]benzoic acid], `CCOc1cccc(CNC(=O)c2nc3scc(COCc4ccc(C(=O)O)cc4)c3c(=O)[nH]2)c1` [Example 366, 4-{[({2-[({[3-(ethyloxy)phenyl]methyl}amino)carbonyl]-4-oxo-3,4-dihydrothieno[2,3-d]pyrimidin-5-yl}methyl)oxy]methyl}benzoic acid] is lower in inhibition at 1 µM: 99% for the first, 93% for the second.

Compared with `O=C(O)c1ccc(COCc2csc3nc(C(=O)NCc4ccc(F)c(Cl)c4)[nH]c(=O)c23)cc1` [Example 339, 4-[({[2-({[(3-chloro-4-fluorophenyl)methyl]amino}carbonyl)-4-oxo-3,4-dihydrothieno[2,3-d]pyrimidin-5-yl]methyl}oxy)methyl]benzoic acid], `Cc1cc(CNC(=O)c2nc3scc(COCc4ccc(C(=O)O)cc4)c3c(=O)[nH]2)ccc1F` [Example 341, 4-[({[2-({[(4-fluoro-3-methylphenyl)methyl]amino}carbonyl)-4-oxo-3,4-dihydrothieno[2,3-d]pyrimidin-5-yl]methyl}oxy)methyl]benzoic acid] is higher in inhibition at 1 µM: 96% for the first, 98% for the second.

Same assay, conditions: read-out: MMP-13 activity inhibitory rate (%), compound 1 μM; substrate Cy3-PLGLK(Cy5Q)AR-NH2; 37° C., 40 min

Compared with `COc1cccc(CNC(=O)c2nc3ccc(F)c(OCCc4ccc(C(=O)O)cc4)c3c(=O)[nH]2)c1` [Example 286, Sodium 4-[2-({6-fluoro-2-[({[3-(methyloxy)phenyl]methyl}amino)carbonyl]-4-oxo-3,4-dihydroquinazolin-5-yl}oxy)ethyl]benzoate], `COc1cccc(CNC(=O)c2nc3scc(COCc4ccc(C(=O)O)cc4)c3c(=O)[nH]2)c1` [Example 383, Sodium 4-{[({2-[({[3-(methyloxy)phenyl]methyl}amino)carbonyl]-4-oxo-3,4-dihydrothieno[2,3-d]pyrimidin-5-yl}methyl)oxy]methyl}benzoate] is lower in inhibition at 1 µM: 97% for the first, 91% for the second.

Test system: not given
Test: not given
Conditions: not given

First: COc1cccc(CNC(=O)c2nc3ccc(Cl)cc3c(=O)[nH]2)c1 [Example 83, 6-chloro-N-{[3-(methyloxy)phenyl]methyl}-4-oxo-3,4-dihydroquinazoline-2-carboxamide]
Second: COc1cccc(CNC(=O)c2nc3ccc(N)cc3c(=O)[nH]2)c1 [Example 100, 6-amino-N-{[3-(methyloxy)phenyl]methyl}-4-oxo-3,4-dihydroquinazoline-2-carboxamide]
The melting point of the first is lower: 203 to 206 °C for the first, 223 to 225 °C for the second.

First: COc1cccc(CNC(=O)c2nc3ccc(I)cc3c(=O)[nH]2)c1 [Example 104, 6-iodo-N-{[3-(methyloxy)phenyl]methyl}-4-oxo-3,4-dihydroquinazoline-2-carboxamide]
Second: COc1cccc(CNC(=O)c2nc3ccc(CN4CCOCC4)cc3c(=O)[nH]2)c1 [Example 116, N-{[3-(methyloxy)phenyl]methyl}-6-(morpholin-4-ylmethyl)-4-oxo-3,4-dihydroquinazoline-2-carboxamide]
The melting point of the first is higher: 219 to 220 °C for the first, 126 to 129 °C for the second.

First: COc1cccc(CNC(=O)c2nc3cnn(CCCc4ccccc4)c3c(=O)[nH]2)c1 [Example 243, N-(3-methoxybenzyl)-7-oxo-1-(3-phenylpropyl)-6,7-dihydro-1H-pyrazolo[4,3-d]pyrimidine-5-carboxamide]
Second: COc1cc(CNC(=O)c2nc3cnn(CCCc4ccccc4)c3c(=O)[nH]2)ccc1F [Example 244, N-(4-fluoro-3-methoxybenzyl)-7-oxo-1-(3-phenylpropyl)-6,7-dihydro-1H-pyrazolo[4,3-d]pyrimidine-5-carboxamide]
The melting point of the first is lower: 138 to 140 °C for the first, 155 to 157 °C for the second.

First: COc1cccc(CNC(=O)c2nc3cnn(CCOc4ccc(C(=O)O)cc4)c3c(=O)[nH]2)c1 [Example 250, 4-[2-(5-{[(3-methoxybenzyl)amino]carbonyl}-7-oxo-6,7-dihydro-1H-pyrazolo[4,3-d]pyrimidin-1-yl)ethoxy]benzoic acid]
Second: COc1cccc(CNC(=O)c2nc3scc(COc4ccc(CC(=O)O)cc4)c3c(=O)[nH]2)c1 [Example 257, {4-[(2-{[(3-methoxybenzyl)amino]carbonyl}-4-oxo-3,4-dihydrothieno[2,3-d]pyrimidin-5-yl)methoxy]phenyl}acetic acid]
The melting point of the first is higher: 230 to 231 °C for the first, 228 to 230 °C for the second.

Compared with `CCOC(=O)Cc1csc2nc(C(=O)NCc3cccc(OC)c3)[nH]c(=O)c12` [Example 251, ethyl (2-{[(3-methoxybenzyl)amino]carbonyl}-4-oxo-3,4-dihydrothieno[2,3-d]pyrimidin-5-yl)acetate], `CCOC(=O)Cc1ccc(OCc2csc3nc(C(=O)NCc4cccc(OC)c4)[nH]c(=O)c23)cc1` [Example 256, ethyl {4-[(2-{[(3-methoxybenzyl)amino]carbonyl}-4-oxo-3,4-dihydrothieno[2,3-d]pyrimidin-5-yl)methoxy]phenyl}acetate] is higher in melting point: 169 to 171 °C for the first, 175 to 178 °C for the second.
